Experimental data reported in US20140031368A1, “SELECTIVE HDAC INHIBITORS” (THE TRUSTEES OF COLUMBIA UNIVERSITY IN THE CITY OF NEW YORK, priority 2010, published 2014).

Columns and labels:
HDAC6 = target: T1, HDAC6 (Homo sapiens, UniProt Q9UBN7); test: Fluorogenic HDAC assay kit (BPS Bioscience), HDAC6 inhibition; assay type: biochemical; conditions: for IC50: purified/recombinant enzyme, inhibitor range 10,000-0.1 nM; for IC50 0 ratio (1/6): ratio IC50 HDAC1 / IC50 HDAC6
T1 sequence (Q9UBN7 1-1215): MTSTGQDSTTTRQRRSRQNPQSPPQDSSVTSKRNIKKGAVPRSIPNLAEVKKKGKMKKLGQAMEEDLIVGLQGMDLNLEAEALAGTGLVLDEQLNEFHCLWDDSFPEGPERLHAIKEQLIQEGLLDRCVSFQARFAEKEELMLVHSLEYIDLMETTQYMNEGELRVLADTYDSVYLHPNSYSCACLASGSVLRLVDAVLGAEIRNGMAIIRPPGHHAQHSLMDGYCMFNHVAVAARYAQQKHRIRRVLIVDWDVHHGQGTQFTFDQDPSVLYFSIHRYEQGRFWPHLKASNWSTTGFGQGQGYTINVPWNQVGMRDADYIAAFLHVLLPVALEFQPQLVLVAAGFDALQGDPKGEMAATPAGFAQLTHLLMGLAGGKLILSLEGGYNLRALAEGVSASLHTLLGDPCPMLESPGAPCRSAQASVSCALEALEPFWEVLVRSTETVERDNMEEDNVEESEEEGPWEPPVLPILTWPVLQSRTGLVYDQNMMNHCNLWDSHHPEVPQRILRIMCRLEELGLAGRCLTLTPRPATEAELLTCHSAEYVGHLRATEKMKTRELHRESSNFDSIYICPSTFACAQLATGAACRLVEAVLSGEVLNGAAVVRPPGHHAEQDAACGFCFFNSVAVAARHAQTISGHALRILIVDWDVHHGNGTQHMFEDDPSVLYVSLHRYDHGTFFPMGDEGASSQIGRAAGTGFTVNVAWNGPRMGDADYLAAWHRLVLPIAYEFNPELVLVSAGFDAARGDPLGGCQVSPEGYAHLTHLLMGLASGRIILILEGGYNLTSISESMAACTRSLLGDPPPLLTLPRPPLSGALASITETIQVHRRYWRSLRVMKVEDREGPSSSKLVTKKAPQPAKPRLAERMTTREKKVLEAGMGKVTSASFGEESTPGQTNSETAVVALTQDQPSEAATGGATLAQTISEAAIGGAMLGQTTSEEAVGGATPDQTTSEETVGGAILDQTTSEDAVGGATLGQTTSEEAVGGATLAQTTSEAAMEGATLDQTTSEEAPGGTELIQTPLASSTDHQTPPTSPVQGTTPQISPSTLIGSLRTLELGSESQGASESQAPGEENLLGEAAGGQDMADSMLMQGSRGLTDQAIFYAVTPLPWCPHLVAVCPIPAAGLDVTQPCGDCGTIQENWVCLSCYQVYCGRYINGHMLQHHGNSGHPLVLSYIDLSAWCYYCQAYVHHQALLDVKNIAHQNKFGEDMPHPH
Experimental: (§1) Various compounds were tested in in vitro enzyme assays for their activity in inhibiting HDAC6 and HDAC1. The assays used was a fluorogenic HDAC assay kit (BPS Bioscience, San Diego, Calif.). On a micotiter the HDAC fluorometric substrate containing an aceylated side chain is incubated with a sample containing HDAC activity (purified/recombinant HDAC1 or HDAC6 enzyme). The deacetylation sensitizes the substrate so subsequent treatment with a lysine developer produces a fluorophore that can then be measured using a fluorescence reader. The assay is performed in the absence and presence of the potential inhibitor compound.
(§2) Follow BPS Bioscience Fluorogenic HDAC Assay Kit (see Example 2). Range of inhibitor compounds tested: 10,000-0.1 nM

HDAC1 = HDAC1 (Homo sapiens, UniProt Q13547); test: Fluorogenic HDAC assay kit (BPS Bioscience), HDAC1 inhibition; assay type: biochemical; conditions: purified/recombinant enzyme; inhibitor range 10,000-0.1 nM
Experimental: as §1, §2

NP-C mutant fibroblasts = assay type: cell-based, human
NP-C fibroblasts = test: Esterification of LDL-derived cholesterol (cholesteryl [3H]oleate formation) in NP-C fibroblasts; assay type: cell-based, human; conditions: 24 h treatment with 5 μM SAHA after 4 d in LPDS; FIG. 4B
Experimental: Cells were grown for 4 d in LPDS, followed by a 24 h treatment with or without 5 μM SAHA, the last 4 h of which included LDL plus [^3H]oleate. *P<0.05, treated vs. untreated cells by two-tailed Student's t-test.

[1] = tested on: HDAC genes in NPC-26 fibroblasts; test: qRT-PCR of HDAC gene expression in NPC-26 fibroblasts; assay type: cell-based, human; conditions: NPC-26 fibroblasts treated with HDAC inhibitor; FIG. 3B

Sequence of HDAC1 (Q13547 whole entry): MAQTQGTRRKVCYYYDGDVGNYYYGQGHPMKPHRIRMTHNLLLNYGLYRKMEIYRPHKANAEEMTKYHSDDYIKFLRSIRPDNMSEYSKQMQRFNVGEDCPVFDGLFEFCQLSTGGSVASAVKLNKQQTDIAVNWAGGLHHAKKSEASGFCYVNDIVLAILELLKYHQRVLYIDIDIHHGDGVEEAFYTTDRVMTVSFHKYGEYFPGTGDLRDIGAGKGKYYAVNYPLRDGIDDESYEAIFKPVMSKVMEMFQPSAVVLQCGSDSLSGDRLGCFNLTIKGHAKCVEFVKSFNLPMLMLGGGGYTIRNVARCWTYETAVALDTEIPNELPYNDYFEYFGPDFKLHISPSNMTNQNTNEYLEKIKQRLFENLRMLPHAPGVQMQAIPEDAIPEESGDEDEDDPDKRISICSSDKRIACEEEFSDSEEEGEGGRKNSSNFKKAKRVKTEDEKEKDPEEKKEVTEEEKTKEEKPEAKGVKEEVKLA

SMILES	IC50 (HDAC6) [nM]	IC50 0 ratio (1/6) (HDAC6)	IC50 (HDAC1) [nM]	lysosomal accumulation of unesterified cholesterol (filipin) (NP-C mutant fibroblasts)	esterification of LDL-derived cholesterol (percent cholesteryl [3H]oleate formation relative to total lipids) (NP-C fibroblasts)	HDAC gene expression (qRT-PCR) [1]
O=C(CCCCCCCC(=O)Nc1ccc(C(C(=O)Nc2cccc3cccnc23)C(=O)Nc2cccc3cccnc23)cc1)NO [Compound 28, N^1-(4-(1,3-dioxo-1,3-bis(quinolin-8-ylamino)propan-2-yl)phenyl)-N^9-hydroxynonanediamide]	57	25	1440	–	–	–
O=C(CCCCCC(=O)Nc1ccc(C(C(=O)Nc2cccc3cccnc23)C(=O)Nc2cccc3cccnc23)cc1)NO [Compound 31, N^1-(4-(1,3-dioxo-1,3-bis(quinolin-8-ylamino)propan-2-yl)phenyl)-N^7-hydroxyheptanediamide]	22	51	1130	–	–	–
O=C(CCCCCCNC(=O)c1ccc(C(C(=O)Nc2cccc3cccnc23)C(=O)Nc2cccc3cccnc23)cc1)NO [Compound 61, 2-(4-(7-(hydroxyamino)-7-oxoheptylcarbamoyl)phenyl)-N1,N3-di(quinolin-8-yl)malonamide]	12	87	1040	–	–	–
CC(C)(C)OC(=O)Nc1ccc(-c2csc(C(=O)NCCCCCCC(=O)NO)c2)cc1 [Compound 79]	4.4	10.6	46.7	–	–	–
O=C(CCCCCCC(=O)Nc1ccccc1)NO [SAHA, suberoylanilide hydroxamic acid]	–	–	–	Reduction in lysosomal accumulation of unesterified cholesterol	Restoration of deficient esterification of LDL-derived cholesterol	restores expression in the direction of control cells

The next lines start with results.

IC50 (HDAC6) [nM]	IC50 0 ratio (1/6) (HDAC6)	IC50 (HDAC1) [nM]	SMILES	lysosomal accumulation of unesterified cholesterol (filipin) (NP-C mutant fibroblasts)	esterification of LDL-derived cholesterol (percent cholesteryl [3H]oleate formation relative to total lipids) (NP-C fibroblasts)	HDAC gene expression (qRT-PCR) [1]
2.25	107	242	O=C(CCCCCCC(=O)Nc1ccc(C(C(=O)Nc2cccc3cccnc23)C(=O)Nc2cccc3cccnc23)cc1)NO [Compound 6, N^1-(4-(1,3-Dioxo-1,3-bis(quinolin-8-ylamino)propan-2-yl)phenyl)-N^8-hydroxyoctanediamide]	–	–	–
3	42.9	129	O=C(CCCCCCC(=O)Nc1ccc(C(C(=O)Nc2ccccc2)C(=O)Nc2ccccc2)cc1)NO [Compound 9, N^1-(4-(1,3-Dioxo-1,3-bis(phenylamino)propan-2-yl)phenyl)-N^8-hydroxyoctanediamide]	–	–	–
42	58	2450	O=C(CCCCCCNC(=O)c1ccc(C(F)(C(=O)Nc2cccc3cccnc23)C(=O)Nc2cccc3cccnc23)cc1)NO [Compound 65, 2-Fluoro-2-(4-(7-(hydroxyamino)-7-oxoheptylcarbamoyl)phenyl)-N1,N3-di(quinolin-8-yl)malonamide]	–	–	–
34.4	3.1	106	CC(C)(C)c1ccc(NC(=O)C(CCCCCC(=O)NO)C(=O)Nc2ccc(C(C)(C)C)cc2)cc1 [Compound 77]	–	–	–
65.7	10.3	676	CC(C)(C)c1ccc(CNC(=O)CCCCCCCC(=O)NO)cc1 [Compound 78]	–	–	–
–	–	38.4	CC(C)(C)OC(=O)Nc1ccc(-c2cc(C(=O)NCCCCCCC(=O)NO)no2)cc1 [Kozikowski compound, reference compound]	–	–	–
